{
  "source": "patent US20230105599A1",
  "about": "“Aqueous Formulations Containing Povidone Iodine for Effective Treatment and Prevention of Virus Infections” (priority 2020, published 2023)",
  "format_in_all_cases": "cell-based",
  "key": {"SARS-CoV-2": {"system": "SARS-CoV-2", "conditions": "45% ethanol control, 37° C.; for Viral Titer: mean of 3 ± SD"}, "[1]": {"system": "Influenza Virus A H1N1, California July 2009", "test": "In vitro virucidal assay, endpoint dilution CCID50 on MDCK cells", "conditions": "95% ethanol control, 37° C.", "protocol": "Formulation B containing 0.6% PVP-I (for nasal spray) was tested for virucidal assay against influenza virus (Influenza Virus A H1N1, California July 2009). Formulation B was diluted with artificial nasal fluid as follows: neat, 1/1.8, 1/3.2 and 1/10. Other controls were 95% ethanol and MEM solution. Virus solution was added to test dilution at 1/10 and incubated for 30 seconds and 2 minutes at 37° C. And thus, the final concentration of solution tested were 90%, 50%, 28% and 9%. Following the incubation period, samples were neutralized by a 1/10 dilution in test media containing 10% FBS. The surviving virus in each tube was determined using a standard endpoint dilution CCID50 assay as follows. Samples were diluted 1/10 in series and each dilution added to 4 replicate columns of 96-well plates seeded with 80-100% confluent MDCK cells. Plates were incubated for 6 days at 37° C. with 5% CO2 then scored for the presence or absence of cytopathic effect (CPE). Virus titer (CCID50) was calculated using the Reed-Muench method (1948). The log reduction value (LRV) of the compound compared to the virus control was calculated. The entire procedure was repeated in triplicate. Toxicity controls were performed to show whether test compound toxicity would confound results by killing the cells in the absence of virus."}, "Human Adenovirus Type 5": {"system": "Human Adenovirus Type 5", "test": "In-vitro anti-viral (virucidal) assay, cytopathic effect study with human AE549 cells", "conditions": "70% ethanol", "quoted_text": "To determine whether contact with aqueous formulation of this invention containing 0.6% PVP-I inactivates (“kills”) virus, the aqueous formulation was mixed directly with virus for 30±5 minutes, then neutralized and the surviving virus was quantified."}},
  "note": "Like-named read-outs stand apart in the source and are kept apart here.",
  "data": [
    {"smiles": "CCO", "note": "[Ethanol]", "values": [
      {"measurement": "LRV (log reduction value)", "setting": "SARS-CoV-2; contact time 0.5 min", "value": 3.5},
      {"measurement": "Viral Titer", "setting": "SARS-CoV-2; contact time 0.5 min", "value": "<1.7 ± 0.0 Log10 CCID50 of virus per mL"},
      {"measurement": "LRV (log reduction value)", "setting": "SARS-CoV-2; contact time 2 min", "value": 1.9},
      {"measurement": "Viral Titer", "setting": "SARS-CoV-2; contact time 2 min", "value": "<1.7 ± 0.0 Log10 CCID50 of virus per mL"},
      {"measurement": "LRV (log reduction value)", "setting": "SARS-CoV-2; contact time 10 min", "value": 3.3},
      {"measurement": "Viral Titer", "setting": "SARS-CoV-2; contact time 10 min", "value": "<0.67 ± 0.0 Log10 CCID50 of virus per mL"},
      {"measurement": "LRV (log reduction value)", "setting": "[1]; contact time 0.5 min", "value": 1.5},
      {"measurement": "Viral Titer", "setting": "[1]; contact time 0.5 min", "value": "4.5 Log10 CCID50 of virus per mL"},
      {"measurement": "LRV (log reduction value)", "setting": "[1]; contact time 2 min", "value": 4.4},
      {"measurement": "Viral Titer", "setting": "[1]; contact time 2 min", "value": "2.3 Log10 CCID50 of virus per mL"},
      {"measurement": "virucidal effect of ethanol control", "setting": "Human Adenovirus Type 5", "value": "fully effective"}
    ]}
  ]
}
